We go through four compounds from US20160271263A1 (Novo Nordisk A/S, priority 2010, published 2016).

Numbered stars: 1 amine (or outer) side, 2 acyl side, 3 side chain; on linkers, the order of the positions; unused ones are H or OH. Square brackets hold non-standard residues; d marks the D form. Side chains are listed from the residue outwards. Peptide text beside a SMILES is read from it. * marks the point of attachment. C18 diacid = O=C(O)CCCCCCCCCCCCCCCCC(=O)*; γGlu = O=C(O)[C@H](CCC(=O)[*:2])N[*:1]; AEEA = NCCOCCOCC(=O)O; Aib = CC(C)(N)C(=O)O

For this experiment, the target named is glucagon receptor (Homo sapiens, UniProt P47871). The experiment in a line: cell-based.
Chain of glucagon receptor (P47871 26-477): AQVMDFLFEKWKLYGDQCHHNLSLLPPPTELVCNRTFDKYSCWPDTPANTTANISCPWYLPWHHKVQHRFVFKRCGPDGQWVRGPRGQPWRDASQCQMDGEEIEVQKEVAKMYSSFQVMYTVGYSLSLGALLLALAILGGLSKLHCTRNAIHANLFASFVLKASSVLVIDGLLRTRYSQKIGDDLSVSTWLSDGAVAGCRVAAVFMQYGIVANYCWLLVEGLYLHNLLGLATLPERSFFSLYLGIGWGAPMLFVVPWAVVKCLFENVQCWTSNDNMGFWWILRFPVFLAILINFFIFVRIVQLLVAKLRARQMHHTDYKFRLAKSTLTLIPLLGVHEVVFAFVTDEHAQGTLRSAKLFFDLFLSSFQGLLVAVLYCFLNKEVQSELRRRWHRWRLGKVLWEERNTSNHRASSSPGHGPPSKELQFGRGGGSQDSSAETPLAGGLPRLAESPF
For the compound `CC(C)C[C@H](NC(=O)[C@H](Cc1ccc(O)cc1)NC(=O)[C@H](CCCCN)NC(=O)[C@H](CO)NC(=O)[C@H](Cc1ccc(O)cc1)NC(=O)[C@H](CC(=O)O)NC(=O)[C@H](CO)NC(=O)[C@@H](NC(=O)[C@H](Cc1ccccc1)NC(=O)[C@@H](NC(=O)CNC(=O)[C@H](CCC(N)=O)NC(=O)C(C)(C)NC(=O)[C@@H](N)Cc1c[nH]cn1)[C@@H](C)O)[C@@H](C)O)C(=O)N[C@@H](CC(=O)O)C(=O)N[C@@H](CCC(=O)O)C(=O)N[C@@H](CCCNC(=N)N)C(=O)N[C@@H](CCCNC(=N)N)C(=O)N[C@@H](C)C(=O)N[C@@H](CCC(N)=O)C(=O)N[C@@H](CC(=O)O)C(=O)N[C@@H](Cc1ccccc1)C(=O)N[C@H](C(=O)N[C@@H](CCCCNC(=O)COCCOCCNC(=O)COCCOCCNC(=O)CC[C@H](NC(=O)CCCCCCCCCCCCCCCCC(=O)O)C(=O)O)C(=O)N[C@@H](Cc1c[nH]c2ccccc12)C(=O)N[C@@H](CC(C)C)C(=O)N[C@@H](CC(C)C)C(=O)N[C@@H](CC(N)=O)C(=O)N[C@H](C(N)=O)[C@@H](C)O)C(C)C` [Example 29, N^ε24-([2-[2-[2-[[2-[2-[2-[[(4S)-5-hydroxy-4-[(18-hydroxy-18-oxooctadecanoyl)amino]-5-oxopentanoyl]amino]ethoxy]ethoxy]acetyl]amino]ethoxy]ethoxy]acetyl]) [Aib^2,Glu^16,Lys^24,Leu^27]Glucagon peptide amide] (H-H[Aib]QGTFTSDYSKYLDERRAQDFVK([AEEA-AEEA-γGlu-C18 diacid])WLLNT-NH2; N-terminus assumed), the EC50 (as a rule, the concentration giving half of the maximal effect) came out at 135 pM. In the case of `CC(C)C[C@H](NC(=O)[C@H](Cc1ccc(O)cc1)NC(=O)[C@H](CCCCN)NC(=O)[C@H](CO)NC(=O)[C@H](Cc1ccc(O)cc1)NC(=O)[C@H](CC(=O)O)NC(=O)[C@H](CO)NC(=O)[C@@H](NC(=O)[C@H](Cc1ccccc1)NC(=O)[C@@H](NC(=O)CNC(=O)[C@H](CCC(N)=O)NC(=O)[C@@H](CO)NC(=O)[C@@H](N)Cc1c[nH]cn1)[C@@H](C)O)[C@@H](C)O)C(=O)N[C@@H](CC(=O)O)C(=O)N[C@@H](CCC(=O)O)C(=O)N[C@@H](CCC(N)=O)C(=O)N[C@@H](C)C(=O)N[C@@H](C)C(=O)N[C@@H](CCCNC(=N)N)C(=O)N[C@@H](CC(=O)O)C(=O)N[C@@H](Cc1ccccc1)C(=O)N[C@H](C(=O)N[C@@H](CCCCNC(=O)COCCOCCNC(=O)COCCOCCNC(=O)CC[C@H](NC(=O)CCCCCCCCCCCCCCCCC(=O)O)C(=O)O)C(=O)N[C@@H](Cc1c[nH]c2ccccc12)C(=O)N[C@@H](CC(C)C)C(=O)N[C@@H](CC(C)C)C(=O)N[C@@H](CC(N)=O)C(=O)N[C@H](C(N)=O)[C@@H](C)O)C(C)C` [Example 30, N^ε24-([2-[2-[2-[[2-[2-[2-[[(4S)-5-hydroxy-4-[(18-hydroxy-18-oxooctadecanoyl)amino]-5-oxopentanoyl]amino]ethoxy]ethoxy]acetyl]amino]ethoxy]ethoxy]acetyl]) [D-Ser^2,Glu^16,Gln^17,Ala^18,Arg^20,Lys^24,Leu^27] Glucagon peptide amide] (H-H[dS]QGTFTSDYSKYLDEQAARDFVK([AEEA-AEEA-γGlu-C18 diacid])WLLNT-NH2; N-terminus assumed), a half-maximal effect (EC50) was put at 137 pM. Regarding `CC(C)C[C@H](NC(=O)[C@H](Cc1ccc(O)cc1)NC(=O)[C@H](CCCCN)NC(=O)[C@H](CO)NC(=O)[C@H](Cc1ccc(O)cc1)NC(=O)[C@H](CC(=O)O)NC(=O)[C@H](CO)NC(=O)[C@@H](NC(=O)[C@H](Cc1ccccc1)NC(=O)[C@@H](NC(=O)CNC(=O)[C@H](CCC(N)=O)NC(=O)[C@H](CO)NC(=O)[C@@H](N)Cc1c[nH]cn1)[C@@H](C)O)[C@@H](C)O)C(=O)N[C@@H](CC(=O)O)C(=O)N[C@@H](CO)C(=O)N[C@@H](CCCNC(=N)N)C(=O)N[C@@H](CCCNC(=N)N)C(=O)N[C@@H](C)C(=O)N[C@@H](CCC(N)=O)C(=O)N[C@@H](CCC(=O)O)C(=O)N[C@@H](Cc1ccccc1)C(=O)N[C@H](C(=O)N[C@@H](CCCCNC(=O)COCCOCCNC(=O)COCCOCCNC(=O)CC[C@H](NC(=O)CCCCCCCCCCCCCCCCC(=O)O)C(=O)O)C(=O)N[C@@H](CCCNC(=N)N)C(=O)N[C@@H](CC(C)C)C(=O)N[C@@H](CC(C)C)C(=O)N[C@@H](CC(N)=O)C(=O)N[C@H](C(N)=O)[C@@H](C)O)C(C)C` [Example 31, N^ε24-([2-[2-[2-[[2-[2-[2-[[(4S)-5-hydroxy-4-[(18-hydroxy-18-oxooctadecanoyl)amino]-5-oxopentanoyl]amino]ethoxy]ethoxy]acetyl]amino]ethoxy]ethoxy]acetyl])[Glu^21, Lys^24, Arg25 Leu^27,]Glucagon peptide amide], the EC50 is 43 pM. Turning to `CC(C)C[C@H](NC(=O)[C@H](CC(C)C)NC(=O)[C@H](Cc1c[nH]c2ccccc12)NC(=O)[C@H](CCCCNC(=O)COCCOCCNC(=O)COCCOCCNC(=O)CC[C@H](NC(=O)CCCCCCCCCCCCCCCCC(=O)O)C(=O)O)NC(=O)[C@@H](NC(=O)[C@H](Cc1ccccc1)NC(=O)[C@H](CC(=O)O)NC(=O)[C@H](CCC(N)=O)NC(=O)[C@H](C)NC(=O)[C@H](CCCNC(=N)N)NC(=O)[C@H](CCCNC(=N)N)NC(=O)[C@H](CCC(=O)O)NC(=O)[C@H](CC(=O)O)NC(=O)[C@H](CC(C)C)NC(=O)[C@H](Cc1ccc(O)cc1)NC(=O)[C@H](CCCCN)NC(=O)[C@H](CO)NC(=O)[C@H](Cc1ccc(O)cc1)NC(=O)[C@H](CC(=O)O)NC(=O)[C@H](CO)NC(=O)[C@@H](NC(=O)[C@H](Cc1ccccc1)NC(=O)[C@@H](NC(=O)CNC(=O)[C@H](CCC(N)=O)NC(=O)[C@H](CO)NC(=O)[C@@H](N)Cc1c[nH]cn1)[C@@H](C)O)[C@@H](C)O)C(C)C)C(=O)N[C@@H](C)C(=O)N[C@H](C(N)=O)[C@@H](C)O` [Example 32, N^ε24-([2-[2-[2-[[2-[2-[2-[[(4S)-5-hydroxy-4-[(18-hydroxy-18-oxooctadecanoyl)amino]-5-oxopentanoyl]amino]ethoxy]ethoxy]acetyl]amino]ethoxy]ethoxy]acetyl])[Glu^16, Lys^24, Leu^27, Ala^28] Glucagon peptide amide] (H-HSQGTFTSDYSKYLDERRAQDFVK([AEEA-AEEA-γGlu-C18 diacid])WLLAT-NH2; N-terminus assumed), the EC50 was 23.5 pM.
